Source: patent US8192962B2, “Processes for detecting toxic substances” (Daikin Industries, Ltd., priority 2001, dated 2012)

Tested on: Transport facilitation protein genes
Assay: DNA chip mRNA expression in yeast, transport facilitation protein genes (Table 5)
Assay type: cell-based, Saccharomyces cerevisiae S288C
Outline: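 First, S288C yeast grown in YPD at 25° C. are dosed in log phase with one toxicant (growth-inhibiting, not lethal) for 2 h. Next, total RNA is extracted and poly(A) mRNA isolated and reverse-transcribed with Cy3/Cy5-dUTP. Finally, whole-genome chip fluorescence is read relative to unexposed cells.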

Question: What does the source list for `CCCCCCCCCCCCOS(=O)(=O)[O-].[Na+]` [(18), sodium lauryl sulfate]?
Answer: The level of expressed mRNA in the presence of chemical substance/The level of expressed mRNA in the absence of chemical substance (yeast gene YBL030C): 1.1; The level of expressed mRNA in the presence of chemical substance/The level of expressed mRNA in the absence of chemical substance (yeast gene YBL099W): 1.2; The level of expressed mRNA in the presence of chemical substance/The level of expressed mRNA in the absence of chemical substance (yeast gene YBR052C): 3.1; The level of expressed mRNA in the presence of chemical substance/The level of expressed mRNA in the absence of chemical substance (yeast gene YBR068C): 1.3; The level of expressed mRNA in the presence of chemical substance/The level of expressed mRNA in the absence of chemical substance (yeast gene YBR127C): 1.0; The level of expressed mRNA in the presence of chemical substance/The level of expressed mRNA in the absence of chemical substance (yeast gene YBR132C): 1.3; The level of expressed mRNA in the presence of chemical substance/The level of expressed mRNA in the absence of chemical substance (yeast gene YBR207W): 1.4; The level of expressed mRNA in the presence of chemical substance/The level of expressed mRNA in the absence of chemical substance (yeast gene YBR293W): 0.9; The level of expressed mRNA in the presence of chemical substance/The level of expressed mRNA in the absence of chemical substance (yeast gene YBR294W): 0.9; The level of expressed mRNA in the presence of chemical substance/The level of expressed mRNA in the absence of chemical substance (yeast gene YBR295W): 1.2; The level of expressed mRNA in the presence of chemical substance/The level of expressed mRNA in the absence of chemical substance (yeast gene YBR298C): 0.8; The level of expressed mRNA in the presence of chemical substance/The level of expressed mRNA in the absence of chemical substance (yeast gene YCL025C): 0.6; The level of expressed mRNA in the presence of chemical substance/The level of expressed mRNA in the absence of chemical substance (yeast gene YCL038C): 1.5; The level of expressed mRNA in the presence of chemical substance/The level of expressed mRNA in the absence of chemical substance (yeast gene YCR024C-A): 1.4; The level of expressed mRNA in the presence of chemical substance/The level of expressed mRNA in the absence of chemical substance (yeast gene YCR037C): 0.9; The level of expressed mRNA in the presence of chemical substance/The level of expressed mRNA in the absence of chemical substance (yeast gene YCR098C): 1.6; The level of expressed mRNA in the presence of chemical substance/The level of expressed mRNA in the absence of chemical substance (yeast gene YDL128W): 1.0; The level of expressed mRNA in the presence of chemical substance/The level of expressed mRNA in the absence of chemical substance (yeast gene YDL198C): 1.1; The level of expressed mRNA in the presence of chemical substance/The level of expressed mRNA in the absence of chemical substance (yeast gene YDL210W): 0.9; The level of expressed mRNA in the presence of chemical substance/The level of expressed mRNA in the absence of chemical substance (yeast gene YDL245C): 1.1; The level of expressed mRNA in the presence of chemical substance/The level of expressed mRNA in the absence of chemical substance (yeast gene YDR038C): 1.5; The level of expressed mRNA in the presence of chemical substance/The level of expressed mRNA in the absence of chemical substance (yeast gene YDR039C): 1.6; The level of expressed mRNA in the presence of chemical substance/The level of expressed mRNA in the absence of chemical substance (yeast gene YDR086C): 1.9; The level of expressed mRNA in the presence of chemical substance/The level of expressed mRNA in the absence of chemical substance (yeast gene YDR270W): 0.7; The level of expressed mRNA in the presence of chemical substance/The level of expressed mRNA in the absence of chemical substance (yeast gene YDR298C): 1.6; The level of expressed mRNA in the presence of chemical substance/The level of expressed mRNA in the absence of chemical substance (yeast gene YDR342C): 2.2; The level of expressed mRNA in the presence of chemical substance/The level of expressed mRNA in the absence of chemical substance (yeast gene YDR343C): 2.3; The level of expressed mRNA in the presence of chemical substance/The level of expressed mRNA in the absence of chemical substance (yeast gene YDR345C): 1.8; The level of expressed mRNA in the presence of chemical substance/The level of expressed mRNA in the absence of chemical substance (yeast gene YDR387C): 1.1; The level of expressed mRNA in the presence of chemical substance/The level of expressed mRNA in the absence of chemical substance (yeast gene YDR497C): 1.8; The level of expressed mRNA in the presence of chemical substance/The level of expressed mRNA in the absence of chemical substance (yeast gene YEL027W): 1.4; The level of expressed mRNA in the presence of chemical substance/The level of expressed mRNA in the absence of chemical substance (yeast gene YEL063C): 0.7; The level of expressed mRNA in the presence of chemical substance/The level of expressed mRNA in the absence of chemical substance (yeast gene YEL065W): 0.6; The level of expressed mRNA in the presence of chemical substance/The level of expressed mRNA in the absence of chemical substance (yeast gene YER053C): 2.3; The level of expressed mRNA in the presence of chemical substance/The level of expressed mRNA in the absence of chemical substance (yeast gene YFL011W): 1.0; The level of expressed mRNA in the presence of chemical substance/The level of expressed mRNA in the absence of chemical substance (yeast gene YFL041W): 0.9; The level of expressed mRNA in the presence of chemical substance/The level of expressed mRNA in the absence of chemical substance (yeast gene YFL050C): 1.0; The level of expressed mRNA in the presence of chemical substance/The level of expressed mRNA in the absence of chemical substance (yeast gene YFL054C): 1.4; The level of expressed mRNA in the presence of chemical substance/The level of expressed mRNA in the absence of chemical substance (yeast gene YGL006W): 4.1; The level of expressed mRNA in the presence of chemical substance/The level of expressed mRNA in the absence of chemical substance (yeast gene YGL008C): 1.0; The level of expressed mRNA in the presence of chemical substance/The level of expressed mRNA in the absence of chemical substance (yeast gene YGL104C): 1.3; The level of expressed mRNA in the presence of chemical substance/The level of expressed mRNA in the absence of chemical substance (yeast gene YGL167C): 1.4; The level of expressed mRNA in the presence of chemical substance/The level of expressed mRNA in the absence of chemical substance (yeast gene YGL255W): 0.5; The level of expressed mRNA in the presence of chemical substance/The level of expressed mRNA in the absence of chemical substance (yeast gene YGR055W): 0.7; The level of expressed mRNA in the presence of chemical substance/The level of expressed mRNA in the absence of chemical substance (yeast gene YGR065C): 0.7; The level of expressed mRNA in the presence of chemical substance/The level of expressed mRNA in the absence of chemical substance (yeast gene YGR082W): 0.8; The level of expressed mRNA in the presence of chemical substance/The level of expressed mRNA in the absence of chemical substance (yeast gene YGR096W): 1.0; The level of expressed mRNA in the presence of chemical substance/The level of expressed mRNA in the absence of chemical substance (yeast gene YGR138C): 0.7; The level of expressed mRNA in the presence of chemical substance/The level of expressed mRNA in the absence of chemical substance (yeast gene YGR191W): 0.8; The level of expressed mRNA in the presence of chemical substance/The level of expressed mRNA in the absence of chemical substance (yeast gene YGR197C): 1.9
